Measurements taken from patent US20050209451A1, “Crystalline form of cefdinir” (priority 2002, published 2005).

How the values were obtained:
[1] = accelerated stability tests in comparison with crystal A; format: physicochemical
Excerpt: Cefdinir in the new crystalline form was subjected to accelerated stability tests in comparison with crystal A claimed in U.S. Pat. No. 4,935,507.

[2] = dissolution tests in 0.07 N HCl; format: physicochemical; conditions: after the first hour, compared with crystal A

Which stability ([1]; compared with reference crystal A of U.S. Pat. No. 4,935,507) does the source give for `C=CC1=C(C(=O)O)N2C(=O)[C@@H](NC(=O)/C(=N\O)c3csc(N)n3)[C@H]2SC1` [new crystal, cefdinir] here?
The stability was “at least equal to that of the reference crystal A”.

What about the stability ([1]; compared with reference crystal A of U.S. Pat. No. 4,935,507, listed as product obtained in this manner) of the same molecule?
The stability was “high stability”.

And the “solubility on prolonged dissolution treatment (final dissolved cefdinir value)” value ([2]; listed as cefdinir in the new crystalline form)?
Its value is “more soluble than crystal A”.

And the “solubility on prolonged dissolution treatment (final dissolved cefdinir value)” value ([2]; listed as product obtained in this manner)?
The value was “higher than that possible with crystal A”.
